Active and inactive are the calls of the source. Cut-off read from the data, not from the text of the source: actives have a measured IC50 and inactives only a lower limit.

In the assay the target is Envelope glycoprotein gp160 (Human immunodeficiency virus 1, UniProt Q6QLK5). Nature of the assay: cell-free HIV fusion peptide-binding blockers – biochemical, uHTS, fluorescence dequenching, […] (AID 1986).
Chain of Envelope glycoprotein gp160 (Q6QLK5 whole entry, the tested form may be a part): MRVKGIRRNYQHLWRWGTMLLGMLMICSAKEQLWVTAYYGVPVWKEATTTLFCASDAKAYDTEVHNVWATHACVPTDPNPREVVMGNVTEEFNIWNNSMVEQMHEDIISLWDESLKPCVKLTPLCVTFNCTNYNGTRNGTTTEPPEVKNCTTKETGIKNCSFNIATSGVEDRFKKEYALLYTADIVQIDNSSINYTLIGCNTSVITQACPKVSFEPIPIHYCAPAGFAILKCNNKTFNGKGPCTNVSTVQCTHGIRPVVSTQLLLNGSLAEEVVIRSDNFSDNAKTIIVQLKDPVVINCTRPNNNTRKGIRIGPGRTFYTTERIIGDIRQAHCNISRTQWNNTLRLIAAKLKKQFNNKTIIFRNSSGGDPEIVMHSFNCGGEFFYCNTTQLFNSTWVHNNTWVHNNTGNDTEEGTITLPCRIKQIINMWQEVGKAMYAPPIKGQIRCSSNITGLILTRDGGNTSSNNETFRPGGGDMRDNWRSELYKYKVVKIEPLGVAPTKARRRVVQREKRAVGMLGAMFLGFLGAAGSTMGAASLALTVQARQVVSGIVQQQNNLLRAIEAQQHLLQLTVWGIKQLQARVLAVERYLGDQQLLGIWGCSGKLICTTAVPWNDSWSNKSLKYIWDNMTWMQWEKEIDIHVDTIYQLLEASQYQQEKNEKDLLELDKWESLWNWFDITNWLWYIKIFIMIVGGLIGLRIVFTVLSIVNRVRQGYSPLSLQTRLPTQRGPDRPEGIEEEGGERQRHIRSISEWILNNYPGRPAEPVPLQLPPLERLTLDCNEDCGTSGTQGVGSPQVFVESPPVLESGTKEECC
As a reminder, the IC50 is the concentration at which inhibition is half-maximal. In the case of `COc1ccc(NS(=O)(=O)c2ccc3c(c2)[C@H]2C=CC[C@H]2[C@@H](c2ccc(C(=O)O)cc2)N3)cc1`, the IC50 was 8.25 µM (active).
In the case of `O=C1/C(=C\c2ccc(O)c(O)c2)C(c2ccccc2)=NN1c1ccccc1`, the IC50 is 17.6 µM (active).
Regarding `CC(C)S(=O)(=O)C1=NSC2=NC(=O)/C(=C\c3ccc(-c4ccccc4)o3)C(=N)N21`, the IC50 was 8.73 µM (active).

Values taken from ChEMBL document CHEMBL1201862, “PubChem BioAssay data set” (2004).
